Assays:
[1] = test system: tumor endothelial cells (CT26.CL25 colon cancer tumor); assay: Colon CT26 ex vivo model of tumor angiogenesis; type: cell-based; conditions: Mus musculus, CT26, 48 h, read-out: Cell death
Method: This example describes a procedure to prepare a primary tumor angiogenesis model for assessing the efficacy of anti-cancer candidate agents.
1. The day before the experiment, spray all necessary tools with 70% ethanol and sterilize them under UV light overnight, including blade, dissecting and micro-dissecting scissors and […]. Place 24-well dishes at 4° C. to pre-chill plates and thaw Matrigel 24 hours before tumor dissection.
2. Spray 70% ethanol on working bench. Prepare two sterile petri dishes with 10 mL sterile PBS. Steps 3 and 4 are for mouse tumor models. For fresh human tumor, directly go to step 5.
3. Euthanize the tumor-bearing mice. Spray 70% ethanol on the mouse and remove the tumor using sterilized dissecting tools (avoid the fur). Rinse the tumor in petri dish with sterile PBS to remove ethanol and fur. Transfer the tumor to a new petri dish with PBS for dissection. Place the dish on ice.
4. Using pre-chilled sterile pipet tips to seed regular Matrigel in 24 well plates on ice. Matrigel (30 μL) is dropped in the middle of each well without touching the edge of the well (avoid introducing bubbles if possible).
5. Cut the tumor in halves using the sterile blade. Identify and isolate healthy tumor tissue that is not necrotic and is within the tumor capsule. Cut the healthy tumor tissue into small pieces. For instance, a suitable size for the tumor tissue is 0.5 mm (H)×0.5 mm (L)×0.3 mm (D) with a total volume of 0.075 mm^3.
6. Gently transfer and embed each tumor piece in the Matrigel drop in the 24-well plate. Place the embedded piece in the bottom and middle of each Matrigel drop. Keep the plate on ice all the time.
7. After seeding the tumor pieces, plates are incubated in a 37° C. cell culture incubator without medium for 10 minutes in order for the Matrigel to solidify.
8. Endothelial Growth Medium (0.5 mL) is added to each well and incubated at 37° C. with 5% CO2. Wait until the new endothelial cells have grown out of the tumor or are larger than 3 mm in diameter until treatment. This usually takes 4 days for the LL2 Lewis lung cancer model and 7 days for the CT26 colon cancer model. For human tumor models, the growth time is typically 2-3 weeks, depending on the tumor type. Media is changed every 4 days during prolonged culture. Typically, when the tumor tissue grows to 2 mm in diameter, it is good for drug testing. A size of about 3 mm in diameter can make visualization easier.
9. When the assay is ready to be analyzed for cell death (e.g., 48 hours after drug addition), prepare the dye mixture by mixing 6 μL of green dye to stain live cells (5 mg/mL Fluorescein diacetate or FDA in DMSO) with 30 μL of red dye (2.5 mg/mL Propidium iodide or PI in PBS) to stain dead cells in an Eppendorf tube. The FDA dye needs to be stored frozen in a −20° C. freezer because it has a labile ester bond.
10. Add 1 μL of the dye mixture to each well of the 24-well dish. It is usually performed one 24-well dish at a time given the amount of time needed to take pictures (the green dye is not as stable in the cells in the long term).
11. Gently rock the dish a few times to mix the dye with the media in the wells and incubate the dish at 37° C. for 10 min (too long incubation can make the green signal too intense).
12. Wash each well with 0.5 mL of sterile PBS and then add 0.5 mL of phenol red free SFM to each well. Alternatively 0.5 mL of regular Endothelial Cell Growth Media can be added to each well if this well needs to be continuously maintained after the experiment.
13. Look through all wells on an inverted microscope using the 2× objective lens to observe morphological changes.
14. Taking pictures in the red and green channels would allow not only the recording of the result but also more accurate quantitation of the result. To take pictures for all the wells, first pick a well that has robust red and green signals. […]

[2] = test system: tumor endothelial cells (LL/2 lung cancer tumor); assay: Lung LL2 ex vivo model of tumor angiogenesis; type: cell-based, mouse; conditions: Mus musculus, Endothelial cell, 48 h, read-out: Cell death
In short: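 Mouse LL2 tumor fragments (~0.5×0.5×0.3 mm) embedded in Matrigel and grown in endothelial growth medium at 37° C until endothelial outgrowth (about 4 days) before drug treatment. About 48 h after drug addition, stained 10 min with fluorescein diacetate/propidium iodide; live (green) and dead (red) cells imaged at 2× with fixed channel settings.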

COc1ccc(S(=O)(=O)c2cnc3ccc([N+](=O)[O-])cc3c2NN2CCN(C)CC2)cc1 [compound 94, 3-((4-methoxyphenyl)sulfonyl)-N-(4-methylpiperazin-1-yl)-6-nitroquinolin-4-amine]
cytotoxicity at 40 µM [1]: 0%
cytotoxicity at 40 µM [2]: 20%

CCCCCCCOc1ccc(S(=O)(=O)c2cnc3ccc([S+](C)[O-])cc3c2N2CCC(N3CCN(CCO)CC3)CC2)cc1 (centres unmarked) [compound 257, 2-(4-(1-(3-((4-(heptyloxy)phenyl)sulfonyl)-6-(methylsulfinyl)quinolin-4-yl)piperidin-4-yl)piperazin-1-yl)ethan-1-ol]
cytotoxicity at 10 µM [1]: 100%
cytotoxicity at 20 µM [2]: 100%

CCOC(=O)c1ccc2ncc(S(=O)(=O)c3ccc(CC)cc3)c(N3CCCN(C)CC3)c2c1 [compound 63, ethyl 3-((4-ethylphenyl)sulfonyl)-4-(4-methyl-1,4-diazepan-1-yl)quinoline-6-carboxylate]
cytotoxicity at 40 µM [1]: 70%
cytotoxicity at 40 µM [2]: 50%

CCc1ccc(S(=O)(=O)c2cnc3ccc([N+](=O)[O-])cc3c2N(CC)CC)cc1 [compound 78, N,N-diethyl-3-((4-ethylphenyl)sulfonyl)-6-nitroquinolin-4-amine]
cytotoxicity at 40 µM [1]: 0%
cytotoxicity at 40 µM [2]: 40%

CCc1ccc(S(=O)(=O)c2cnc3ccc(C(=O)O)cc3c2N2CCC(O)CC2)cc1 [compound 65, 3-((4-ethylphenyl)sulfonyl)-4-(4-hydroxypiperidin-1-yl)quinoline-6-carboxylic acid]
cytotoxicity at 40 µM [1]: 0%
cytotoxicity at 40 µM [2]: 10%

CCc1ccc(S(=O)(=O)c2cnc3ccc(OC)cc3c2-n2cncn2)cc1 [compound 79, 3-((4-ethylphenyl)sulfonyl)-6-methoxy-4-(1H-1,2,4-triazol-1-yl)quinoline]
cytotoxicity at 10 µM [1]: 100%
cytotoxicity at 20 µM [2]: 20%

COc1ccc(S(=O)(=O)c2cnc3ccc(SC)cc3c2N2CCCN(C)CC2)cc1OC [compound 154, 3-((3,4-dimethoxyphenyl)sulfonyl)-4-(4-methyl-1,4-diazepan-1-yl)-6-(methylthio)quinoline]
cytotoxicity at 40 µM [1]: 30%
cytotoxicity at 40 µM [2]: 30%

CCCCOc1ccc(S(=O)(=O)c2cnc3ccc(C(=O)OCC)cc3c2N2CCC(N3CCOCC3)CC2)cc1 [compound 212, ethyl 3-((4-butoxyphenyl)sulfonyl)-4-(4-morpholinopiperidin-1-yl)quinoline-6-carboxylate]
cytotoxicity at 40 µM [1]: 10%
cytotoxicity at 40 µM [2]: 50%

CCCCOc1ccc(S(=O)(=O)c2cnc3ccc(C(=O)OCC)cc3c2N2CCC(N3CCCCC3)CC2)cc1 [compound 157, ethyl 4-([1,4′-bipiperidin]-1′-yl)-3-((4-butoxyphenyl)sulfonyl)quinoline-6-carboxylate]
cytotoxicity at 40 µM [1]: 60%
cytotoxicity at 40 µM [2]: 100%

CCCCOc1ccc(S(=O)(=O)c2cnc3ccc(C(=O)OCC)cc3c2N2CCCN(C)CC2)cc1 [compound 158, ethyl 3-((4-butoxyphenyl)sulfonyl)-4-(4-methyl-1,4-diazepan-1-yl)quinoline-6-carboxylate]
cytotoxicity at 40 µM [1]: 100%
cytotoxicity at 40 µM [2]: 100%

CCc1ccc(S(=O)(=O)c2cnc3ccc(OC(F)(F)F)cc3c2-n2nnc3ccccc32)cc1 [compound 112, 4-(1H-benzo[d][1,2,3]triazol-1-yl)-3-((4-ethylphenyl)sulfonyl)-6-(trifluoromethoxy)quinoline]
cytotoxicity at 40 µM [1]: 10%
cytotoxicity at 20 µM [2]: 70%

CCCCOc1ccc(S(=O)(=O)c2cnc3ccc(SC)cc3c2N2CCC(N3CCCCC3)CC2)cc1 [compound 159, 4-([1,4′-bipiperidin]-1′-yl)-3-((4-butoxyphenyl)sulfonyl)-6-(methylthio)quinoline]
cytotoxicity at 40 µM [1]: 100%
cytotoxicity at 40 µM [2]: 100%

CCOC(=O)C1CCN(c2c(S(=O)(=O)c3ccc(CC)cc3)cnc3ccc(OC(F)(F)F)cc23)CC1 [compound 47, ethyl 1-(3-((4-ethylphenyl)sulfonyl)-6-(trifluoromethoxy)quinolin-4-yl)piperidine-4-carboxylate]
cytotoxicity at 40 µM [1]: 10%
cytotoxicity at 40 µM [2]: 50%

COc1ccc(S(=O)(=O)c2cnc3ccc(OC(F)(F)F)cc3c2NN2CCN(C)CC2)cc1 [compound 85, 3-((4-methoxyphenyl)sulfonyl)-N-(4-methylpiperazin-1-yl)-6-(trifluoromethoxy)quinolin-4-amine]
cytotoxicity at 40 µM [1]: 50%
cytotoxicity at 40 µM [2]: 80%

COc1ccc(S(=O)(=O)c2cnc3ccc(OC(F)(F)F)cc3c2N2CCC(N3CCCCC3)CC2)cc1 [compound 43, 4-([1,4′-bipiperidin]-1′-yl)-3-((4-methoxyphenyl)sulfonyl)-6-(trifluoromethoxy)quinoline]
cytotoxicity at 40 µM [1]: 90%
cytotoxicity at 40 µM [2]: 100%

CCc1ccc(S(=O)(=O)c2cnc3ccc([N+](=O)[O-])cc3c2N2CCCN(C)CC2)cc1 [compound 76, 3-((4-ethylphenyl)sulfonyl)-4-(4-methyl-1,4-diazepan-1-yl)-6-nitroquinoline]
cytotoxicity at 40 µM [1]: 100%
cytotoxicity at 40 µM [2]: 20%

CCc1ccc(S(=O)(=O)c2cnc3ccc(OC(F)(F)F)cc3c2-n2cncn2)cc1 [compound 51, 3-((4-ethylphenyl)sulfonyl)-4-(1H-1,2,4-triazol-1-yl)-6-(trifluoromethoxy)quinoline]
cytotoxicity at 40 µM [1]: 20%
cytotoxicity at 40 µM [2]: 100%

CCCCCCCOc1ccc(S(=O)(=O)c2cnc3ccc([S+](C)[O-])cc3c2N2CCC(N3CCCN(C)CC3)CC2)cc1 (centres unmarked) [compound 256, 3-((4-(heptyloxy)phenyl)sulfonyl)-4-(4-(4-methyl-1,4-diazepan-1-yl)piperidin-1-yl)-6-(methylsulfinyl)quinoline]
cytotoxicity at 10 µM [1]: 90%
cytotoxicity at 20 µM [2]: 100%

CCc1ccc(S(=O)(=O)c2cnc3ccc(CC#N)cc3c2N2CCC(N3CCCCC3)CC2)cc1 [compound 55, 2-(4-([1,4′-bipiperidin]-1′-yl)-3-((4-ethylphenyl)sulfonyl)quinolin-6-yl)acetonitrile]
cytotoxicity at 40 µM [1]: 50%
cytotoxicity at 40 µM [2]: 70%

CCCCOc1ccc(S(=O)(=O)c2cnc3ccc(C(=O)OCC)cc3c2N2CCC(N3CCCN(C)CC3)CC2)cc1 [compound 211, ethyl 3-((4-butoxyphenyl)sulfonyl)-4-(4-(4-methyl-1,4-diazepan-1-yl)piperidin-1-yl)quinoline-6-carboxylate]
cytotoxicity at 40 µM [1]: 100%
cytotoxicity at 40 µM [2]: 100%

COc1ccc(S(=O)(=O)c2cnc3ccc(SC)cc3c2N2CCC(N3CCC(O)CC3)CC2)cc1OC [compound 153, 1′-(3-((3,4-dimethoxyphenyl)sulfonyl)-6-(methylthio)quinolin-4-yl)-[1,4′-bipiperidin]-4-ol]
cytotoxicity at 40 µM [1]: 20%

CCCCOc1ccc2ncc(S(=O)(=O)c3ccc(OC)c(OC)c3)c(N(CC)CC)c2c1 [compound 123, 6-butoxy-3-((3,4-dimethoxyphenyl)sulfonyl)-N,N-diethylquinolin-4-amine]
cytotoxicity at 40 µM [1]: 20%

CCOC(=O)c1ccc2ncc(S(=O)(=O)c3ccc(OC)cc3)c(N3CCC(OCCN(CC)CC)CC3)c2c1 [compound 140, ethyl 4-(4-(2-(diethylamino)ethoxy)piperidin-1-yl)-3-((4-methoxyphenyl)sulfonyl)quinoline-6-carboxylate]
cytotoxicity at 40 µM [1]: 60%

CCOC(=O)c1ccc2ncc(S(=O)(=O)c3ccc(OC)cc3)c(N3CCC(N4CCCCC4)CC3)c2c1 [compound 136, ethyl 4-([1,4′-bipiperidin]-1′-yl)-3-((4-methoxyphenyl)sulfonyl)quinoline-6-carboxylate]
cytotoxicity at 40 µM [1]: 30%

Source: patent US11884647B2, “Compounds and methods for targeting pathogenic blood vessels” (THE REGENTS OF THE UNIVERSITY OF CALIFORNIA, priority 2019, dated 2024)
